Test system: 328373-195-R-J1-PDC complex spheroids, viability % test/control
Experiment: Anticancer human tumor 328373-195-R-J1-PDC patient-derived head and neck squamous carcinoma cell line growth inhibition [CLK]
Details: for IC50: curve of first compound; for viability, T/C: stronger effect = lower value
In short: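 Multi-cell-type spheroids combined patient-derived tumor cells with HUVEC endothelial cells and human mesenchymal stem cells. Paired agents were dosed in half-log steps down from about clinical Cmax, or from 10 microM where Cmax was unknown.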

[1] = second compound 0.0316 µM, first compound 0.0316 µM
[2] = second compound 0.0316 µM, first compound 0.1 µM
[3] = second compound 0.0316 µM, first compound 0.316 µM
[4] = second compound 0.0316 µM, first compound 1 µM
[5] = second compound 0.1 µM, first compound 0.0316 µM
[6] = second compound 0.1 µM, first compound 0.1 µM
[7] = second compound 0.1 µM, first compound 0.316 µM
[8] = second compound 0.1 µM, first compound 1 µM
[9] = second compound 0.316 µM, first compound 0.0316 µM
[10] = second compound 0.316 µM, first compound 0.1 µM
[11] = second compound 0.316 µM, first compound 0.316 µM
[12] = second compound 0.316 µM, first compound 1 µM
[13] = second compound 1 µM, first compound 0.0316 µM
[14] = second compound 1 µM, first compound 0.1 µM
[15] = second compound 1 µM, first compound 0.316 µM
[16] = second compound 1 µM, first compound 1 µM
[17] = second compound 3.16 µM, first compound 0.0316 µM
[18] = second compound 3.16 µM, first compound 0.1 µM
[19] = second compound 3.16 µM, first compound 0.316 µM
[20] = second compound 3.16 µM, first compound 1 µM
[21] = second compound 10 µM, first compound 0.0316 µM
[22] = second compound 10 µM, first compound 0.1 µM
[23] = second compound 10 µM, first compound 0.316 µM
[24] = second compound 10 µM, first compound 1 µM
[25] = second compound 0.0316 µM, first compound 0.00316 µM
[26] = second compound 0.0316 µM, first compound 0.01 µM
[27] = second compound 0.1 µM, first compound 0.00316 µM
[28] = second compound 0.1 µM, first compound 0.01 µM
[29] = second compound 0.316 µM, first compound 0.00316 µM
[30] = second compound 0.316 µM, first compound 0.01 µM
[31] = second compound 1 µM, first compound 0.00316 µM
[32] = second compound 1 µM, first compound 0.01 µM
[33] = second compound 3.16 µM, first compound 0.00316 µM
[34] = second compound 3.16 µM, first compound 0.01 µM
[35] = second compound 10 µM, first compound 0.00316 µM
[36] = second compound 10 µM, first compound 0.01 µM
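Further: spheroids exposed to the agents for 7 days.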

C=CC(=O)Nc1cc(Nc2nccc(-c3cn(C)c4ccccc34)n2)c(OC)cc1N(C)CCN(C)C + CN1CCN(c2cc(C(=O)Nc3cc4cc(-c5cnn(C)c5)ccc4cn3)ccn2)CC1
IC50 (second compound 0.0316 µM): > 300 nM
IC50 (second compound 0.1 µM): > 300 nM
IC50 (second compound 0.316 µM): < 0.949 nM
IC50 (second compound 1 µM): < 0.949 nM
IC50 (second compound 3.16 µM): < 0.949 nM
IC50 (second compound 10 µM): < 0.949 nM
viability, T/C (second compound 0.0316 µM, first compound 0.000949 µM): 100%
viability, T/C (second compound 0.0316 µM, first compound 0.003 µM): 112%
viability, T/C (second compound 0.0316 µM, first compound 0.00949 µM): 99.2%
viability, T/C (second compound 0.0316 µM, first compound 0.03 µM): 96.9%
viability, T/C (second compound 0.0316 µM, first compound 0.0949 µM): 98.7%
viability, T/C (second compound 0.0316 µM, first compound 0.3 µM): 93.6%
viability, T/C (second compound 0.1 µM, first compound 0.000949 µM): 83.8%
viability, T/C (second compound 0.1 µM, first compound 0.003 µM): 88.1%
viability, T/C (second compound 0.1 µM, first compound 0.00949 µM): 87.4%
viability, T/C (second compound 0.1 µM, first compound 0.03 µM): 90.7%
viability, T/C (second compound 0.1 µM, first compound 0.0949 µM): 96%
viability, T/C (second compound 0.1 µM, first compound 0.3 µM): 69%
viability, T/C (second compound 0.316 µM, first compound 0.000949 µM): 30.1%
viability, T/C (second compound 0.316 µM, first compound 0.003 µM): 35%
viability, T/C (second compound 0.316 µM, first compound 0.00949 µM): 30.1%
viability, T/C (second compound 0.316 µM, first compound 0.03 µM): 26.3%
viability, T/C (second compound 0.316 µM, first compound 0.0949 µM): 26.6%
viability, T/C (second compound 0.316 µM, first compound 0.3 µM): 18.1%
viability, T/C (second compound 1 µM, first compound 0.000949 µM): 0.15%
viability, T/C (second compound 1 µM, first compound 0.003 µM): 0.25%
viability, T/C (second compound 1 µM, first compound 0.00949 µM): 0.9%
viability, T/C (second compound 1 µM, first compound 0.03 µM): 0.25%
viability, T/C (second compound 1 µM, first compound 0.0949 µM): 1.86%
viability, T/C (second compound 1 µM, first compound 0.3 µM): 1.95%
viability, T/C (second compound 3.16 µM, first compound 0.000949 µM): 1.21%
viability, T/C (second compound 3.16 µM, first compound 0.003 µM): 0.16%
viability, T/C (second compound 3.16 µM, first compound 0.00949 µM): 0.17%
viability, T/C (second compound 3.16 µM, first compound 0.03 µM): 0.15%
viability, T/C (second compound 3.16 µM, first compound 0.0949 µM): 4.52%
viability, T/C (second compound 3.16 µM, first compound 0.3 µM): 2.34%
viability, T/C (second compound 10 µM, first compound 0.000949 µM): 0.17%
viability, T/C (second compound 10 µM, first compound 0.003 µM): 0.21%
viability, T/C (second compound 10 µM, first compound 0.00949 µM): 1.31%
viability, T/C (second compound 10 µM, first compound 0.03 µM): 2.14%
viability, T/C (second compound 10 µM, first compound 0.0949 µM): 3.21%
viability, T/C (second compound 10 µM, first compound 0.3 µM): 0.21%

CC(Nc1ccc2c(c1)OCCn1cc(N3C(=O)OCC3C(F)F)nc1-2)C(N)=O (stereo not drawn) + CN1CCN(c2cc(C(=O)Nc3cc4cc(-c5cnn(C)c5)ccc4cn3)ccn2)CC1
IC50 (second compound 0.0316 µM): > 10000 nM
IC50 (second compound 0.1 µM): 2420 nM
IC50 (second compound 0.316 µM): < 31.6 nM
IC50 (second compound 1 µM): < 31.6 nM
IC50 (second compound 3.16 µM): < 31.6 nM
IC50 (second compound 10 µM): < 31.6 nM
viability, T/C [1]: 90.4%
viability, T/C [2]: 88.7%
viability, T/C [3]: 87.1%
viability, T/C [4]: 78.4%
viability, T/C (second compound 0.0316 µM, first compound 3.16 µM): 58.1%
viability, T/C (second compound 0.0316 µM, first compound 10 µM): 53.7%
viability, T/C [5]: 75.8%
viability, T/C [6]: 74.3%
viability, T/C [7]: 73.7%
viability, T/C [8]: 67.2%
viability, T/C (second compound 0.1 µM, first compound 3.16 µM): 44.2%
viability, T/C (second compound 0.1 µM, first compound 10 µM): 45.4%
viability, T/C [9]: 34.3%
viability, T/C [10]: 28.9%
viability, T/C [11]: 28.8%
viability, T/C [12]: 23.8%
viability, T/C (second compound 0.316 µM, first compound 3.16 µM): 17.7%
viability, T/C (second compound 0.316 µM, first compound 10 µM): 17.5%
viability, T/C [13]: 0.25%
viability, T/C [14]: 0.23%
viability, T/C [15]: 1.16%
viability, T/C [16]: 0.41%
viability, T/C (second compound 1 µM, first compound 3.16 µM): 1.23%
viability, T/C (second compound 1 µM, first compound 10 µM): 1.08%
viability, T/C [17]: 1.31%
viability, T/C [18]: 0.16%
viability, T/C [19]: 1.05%
viability, T/C [20]: 0.11%
viability, T/C (second compound 3.16 µM, first compound 3.16 µM): 2.46%
viability, T/C (second compound 3.16 µM, first compound 10 µM): 2.43%
viability, T/C [21]: 0.1%
viability, T/C [22]: 1.44%
viability, T/C [23]: 0.26%
viability, T/C [24]: 0.2%
viability, T/C (second compound 10 µM, first compound 3.16 µM): 2.32%
viability, T/C (second compound 10 µM, first compound 10 µM): 1.83%

CCN1CCN(Cc2ccc(Nc3ncc(F)c(-c4cc(F)c5nc(C)n(C(C)C)c5c4)n3)nc2)CC1 + CN1CCN(c2cc(C(=O)Nc3cc4cc(-c5cnn(C)c5)ccc4cn3)ccn2)CC1
IC50 (second compound 0.0316 µM): > 1000 nM
IC50 (second compound 0.1 µM): > 1000 nM
IC50 (second compound 0.316 µM): < 3.16 nM
IC50 (second compound 1 µM): < 3.16 nM
IC50 (second compound 3.16 µM): < 3.16 nM
IC50 (second compound 10 µM): < 3.16 nM
viability, T/C [25]: 94.7%
viability, T/C [26]: 95.9%
viability, T/C [1]: 103%
viability, T/C [2]: 79.5%
viability, T/C [3]: 71.3%
viability, T/C [4]: 51.2%
viability, T/C [27]: 86.5%
viability, T/C [28]: 84.8%
viability, T/C [5]: 88.5%
viability, T/C [6]: 69.3%
viability, T/C [7]: 63%
viability, T/C [8]: 53.3%
viability, T/C [29]: 29.9%
viability, T/C [30]: 32.9%
viability, T/C [9]: 31.6%
viability, T/C [10]: 26.5%
viability, T/C [11]: 24.2%
viability, T/C [12]: 18.5%
viability, T/C [31]: 0.16%
viability, T/C [32]: 2.17%
viability, T/C [13]: 0.34%
viability, T/C [14]: 1.1%
viability, T/C [15]: 0.85%
viability, T/C [16]: 0.24%
viability, T/C [33]: 0.11%
viability, T/C [34]: 1.57%
viability, T/C [17]: 1.92%
viability, T/C [18]: 0.15%
viability, T/C [19]: 1.14%
viability, T/C [20]: 0.2%
viability, T/C [35]: 0.37%
viability, T/C [36]: 0.56%
viability, T/C [21]: 3.2%
viability, T/C [22]: 0.17%
viability, T/C [23]: 1.94%
viability, T/C [24]: 1.71%

COc1c(OCCCN2CCOCC2)ccc2c3n(c(=NC(=O)c4cnc(N)nc4)nc12)CCN3 + CN1CCN(c2cc(C(=O)Nc3cc4cc(-c5cnn(C)c5)ccc4cn3)ccn2)CC1
IC50 (second compound 0.0316 µM): 126 nM
IC50 (second compound 0.1 µM): 79.9 nM
IC50 (second compound 0.316 µM): < 3.16 nM
IC50 (second compound 1 µM): < 3.16 nM
IC50 (second compound 3.16 µM): < 3.16 nM
IC50 (second compound 10 µM): < 3.16 nM
viability, T/C [25]: 95.8%
viability, T/C [26]: 93.9%
viability, T/C [1]: 77.9%
viability, T/C [2]: 52.7%
viability, T/C [3]: 31.9%
viability, T/C [4]: 9.52%
viability, T/C [27]: 71.7%
viability, T/C [28]: 77.8%
viability, T/C [5]: 63.5%
viability, T/C [6]: 46.4%
viability, T/C [7]: 23.2%
viability, T/C [8]: 10.4%
viability, T/C [29]: 32.5%
viability, T/C [30]: 35.3%
viability, T/C [9]: 20.4%
viability, T/C [10]: 17.1%
viability, T/C [11]: 7.35%
viability, T/C [12]: 4.17%
viability, T/C [31]: 0.2%
viability, T/C [32]: 1.02%
viability, T/C [13]: 0.29%
viability, T/C [14]: 0.33%
viability, T/C [15]: 0.18%
viability, T/C [16]: 4.25%
viability, T/C [33]: 0.08%
viability, T/C [34]: 3.15%
viability, T/C [17]: 0.9%
viability, T/C [18]: 0.09%
viability, T/C [19]: 2.94%
viability, T/C [20]: 0.12%
viability, T/C [35]: 0.62%
viability, T/C [36]: 2.77%
viability, T/C [21]: 0.15%
viability, T/C [22]: 0.14%
viability, T/C [23]: 1.52%
viability, T/C [24]: 1.72%
